*: point of attachment. FITC = O=C1OC2(c3ccc(O)cc3Oc3cc(O)ccc32)c2ccc(NC(=S)*)cc21; Ahx = NCCCCCC(=O)O
Legend:
[1] = biological target: T1, recombinant GST-MDM2 (Homo sapiens, UniProt Q00987); assay: In vitro ubiquitination assay of p53 performed by recombinant GST-MDM2; format: biochemical
T1 construct: GST (N)
Excerpt: (§1) Further experiments have been performed to define the role of peptide 3 composition in its molecular and biological activity. […] Supporting these new experimental data about the importance of Isoleucine 489 and Phenylalanine 488, molecular dynamic simulations have shown that these residues engage in specific hydrophobic and aromatic interactions with MDM2 (FIG. 11). In particular, Isoleucine 489 is harbored in a hydrophobic cleft composed of Alanine 434, Isoleucine 435 and Leucine 458 of MDM2 protein. Likewise, Phenylalanine 488 forms aromatic interactions with a Histidine residue (HID-457) of MDM2 protein.

[2] = biological target: T2, MDM4/MDM2 complex (Homo sapiens, UniProt O15151+Q00987); assay: Immunoprecipitation / western blot of MDM4/MDM2 complex after peptide transfection in HCT116 cells; format: cell-based; conditions: HCT116 wild type and p53−/−
T2 construct: immunoprecipitation of MDM4 has been carried out on cell lysates; endogenous in cells; host or cells: HCT116 wt and HCT116 p53-/- colon carcinoma cells
T2 sequence (O15151 whole entry): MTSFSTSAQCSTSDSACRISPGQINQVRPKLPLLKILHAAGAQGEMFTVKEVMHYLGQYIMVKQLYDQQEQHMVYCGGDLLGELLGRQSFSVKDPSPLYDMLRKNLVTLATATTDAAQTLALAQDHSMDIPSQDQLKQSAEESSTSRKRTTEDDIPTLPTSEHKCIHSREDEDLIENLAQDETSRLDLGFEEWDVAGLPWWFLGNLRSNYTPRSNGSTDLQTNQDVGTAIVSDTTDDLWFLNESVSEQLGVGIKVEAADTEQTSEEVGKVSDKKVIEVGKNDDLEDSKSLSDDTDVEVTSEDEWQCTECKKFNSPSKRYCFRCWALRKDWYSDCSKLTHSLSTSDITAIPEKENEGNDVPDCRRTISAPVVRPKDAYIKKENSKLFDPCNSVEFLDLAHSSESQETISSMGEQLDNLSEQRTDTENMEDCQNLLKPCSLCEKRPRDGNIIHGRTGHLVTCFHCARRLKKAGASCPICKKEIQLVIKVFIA
T2 sequence (Q00987 whole entry): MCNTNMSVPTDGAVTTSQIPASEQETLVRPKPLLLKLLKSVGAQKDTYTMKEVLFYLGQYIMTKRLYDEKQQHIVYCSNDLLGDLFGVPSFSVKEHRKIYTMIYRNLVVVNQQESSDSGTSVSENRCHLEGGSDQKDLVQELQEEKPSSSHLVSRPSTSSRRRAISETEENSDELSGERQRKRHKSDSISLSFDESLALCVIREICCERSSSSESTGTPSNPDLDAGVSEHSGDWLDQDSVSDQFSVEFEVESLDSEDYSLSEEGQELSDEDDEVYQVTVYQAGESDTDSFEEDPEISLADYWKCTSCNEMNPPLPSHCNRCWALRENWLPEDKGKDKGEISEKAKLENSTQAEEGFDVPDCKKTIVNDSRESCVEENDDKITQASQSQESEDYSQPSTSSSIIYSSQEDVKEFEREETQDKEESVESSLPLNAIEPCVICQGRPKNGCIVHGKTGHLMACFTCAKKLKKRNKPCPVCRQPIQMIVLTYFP
Excerpt: Transient transfection of peptides has been carried out in HCT116 wt and p53−/− colon carcinoma cell lines and the immunoprecipitation of MDM4 has been carried out on cell lysates in order to detect the presence of MDM2 within the immunocomplex, by western blot analysis.
Transient transfection of peptides has been carried out in HCT116 wt and p53−/− colon carcinoma cell lines and the immunoprecipitation of MDM4 has been performed on cell lysates in order to detect the presence of MDM2 within the immunocomplex by western blot analysis.
Cells have been lysed using Saito lysis modified reagent (50 mM Tris-HCl, pH 7.4, 0.15 M NaCl, 0.5% Triton-X100, 5 mM EDTA). […]
(§2) It has been investigated whether peptides were able to enter the cell simply by addition thereof at given concentration (5 μM) to cell culture medium and analyzing for the presence thereof by confocal and fluorescence microscopy, each peptide being labeled with green fluorophore (FAM). It has been observed that peptides were detected in cells only after transfection by liposomes. Successively, the ability of peptides to disrupt the binding by MDM4 or MDM2 immunoprecipitation after peptide transfection in HCT116 cancer cell line, and detection of presence of corresponding partner in immunocomplex by western blot assay have been evaluated. […]

[3] = test system: HCT116 wt cells; assay: Cell death by cytofluorimetric analysis (Propidium Iodide) of cells transfected with FITC tagged peptides; format: cell-based; conditions: for induction of apoptotic response / cellular apoptosis: HCT116 cells transfected with peptide
Procedure: (§3) Cytofluorimetric analysis was carried out on HCT116 wt and p53−/− cells transfected with FITC tagged peptides and stained with Propidium Iodide (PI). Percentage of dead cells was evaluated specifically among the transfected cells (green population).
(§4) Cytofluorimetric analysis was performed on HCT116 wt and p53−/− cells transfected with FITC tagged peptides and stained with Propidium Iodide (PI). Percentage of dead cells was evaluated specifically among the transfected cells (green population).
(§5) It has been investigated whether peptides were able to enter the cell simply by addition thereof at given concentration (5 μM) to cell culture medium and analyzing for the presence thereof by confocal and fluorescence microscopy, each peptide being labeled with green fluorophore (FAM). It has been observed that peptides were detected in cells only after transfection by liposomes. Successively, the ability of peptides to disrupt the binding by MDM4 or MDM2 immunoprecipitation after peptide transfection in HCT116 cancer cell line, and detection of presence of corresponding partner in immunocomplex by western blot assay have been evaluated. Two HCT116 wild type and HCT116 p53−/− syngeneic cell lines have been used in order to understand also observed effect dependence on the presence of p53.

[4] = biological target: T3, p53/MDM4 binding (Homo sapiens, UniProt O15151); assay: Immunoprecipitation / western blot of p53 binding to MDM4 after peptide transfection in HCT116 cells; format: cell-based
T3 construct: MDM4 or MDM2 immunoprecipitation after peptide transfection in HCT116 cancer cell line; endogenous in cells; host or cells: HCT116 wt (p53+/+) colon carcinoma cells
T3 sequence (O15151 whole entry): as the sequence (O15151 whole entry) above
T3 sequence (P04637 whole entry partner): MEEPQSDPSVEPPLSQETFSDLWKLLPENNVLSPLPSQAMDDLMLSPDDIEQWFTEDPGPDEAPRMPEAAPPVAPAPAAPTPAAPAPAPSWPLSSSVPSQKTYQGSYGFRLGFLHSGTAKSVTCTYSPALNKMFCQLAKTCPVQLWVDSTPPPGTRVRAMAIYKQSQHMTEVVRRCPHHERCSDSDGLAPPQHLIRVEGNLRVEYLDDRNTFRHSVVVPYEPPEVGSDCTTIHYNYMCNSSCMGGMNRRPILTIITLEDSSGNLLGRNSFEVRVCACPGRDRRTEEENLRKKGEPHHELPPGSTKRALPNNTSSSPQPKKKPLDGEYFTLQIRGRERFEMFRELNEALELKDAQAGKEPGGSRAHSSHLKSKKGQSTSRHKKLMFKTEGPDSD
Procedure: Cells have been lysed using Saito lysis modified reagent (50 mM Tris-HCl, pH 7.4, 0.15 M NaCl, 0.5% Triton-X100, 5 mM EDTA). For p53 immunoprecipitation and BCL2 and MDM4 analysis EBC modified solution has been used (50 mM Tris-HCl, pH 7.4, 0.12 M NaCl, 0.4% NP-40, 1 mM EDTA, 1 Mm β-mercaptoethanol).
400 μg of total protein extract has been incubated with protein G (Invitrogen) for 2 hours under stirring at 4° C. in order not specific binding of proteins with said substrate can occur. Afterwards the cellular extract has been centrifuged, not specific complexes removed with precipitate and supernatant has been incubated for 16 hours with specific antibody. Successively, protein G has been added and incubated for 2 hour at 4° C. […]
as §2

[5] = test system: HCT116 wt and p53−/− cells; assay: TUNEL assay of apoptosis in cells transfected with FITC tagged peptides; format: cell-based; conditions: among transfected (green) cells
Procedure: In order to specifically detect apoptotic cells, TUNEL assay was carried out in HCT116 wt and p53−/− cells transfected with FITC tagged peptides. Percentage of apoptotic cells was evaluated specifically among the transfected cells (green population).
as §1

[6] = test system: HCT116 p53−/− cells; assay: Cell death by cytofluorimetric analysis (Propidium Iodide) of cells transfected with FITC tagged peptides; format: cell-based; conditions: HCT116 p53−/− compared with wt
Procedure: as §3, §4, §5

T1 sequence (Q00987 whole entry): as the sequence (Q00987 whole entry) above

Row | Substance | inhibition of ubiquitination of p53 [1] | ability to dissociate MDM4/MDM2 complex [2] | induction of apoptotic response / cellular apoptosis [3] | cell death response in comparison to the control Scramble peptide ([3]; HCT116 p53+/+ cells) | effect on binding of p53 to MDM4 [4] | induction of apoptosis (TUNEL) [5] | induced death in p53 lacking versus p53 harboring cells [6]
1 | AIKIFVKVLEIQ (peptide composed with the same aminoacids of SEQ ID NO3 but arranged in different order) [Peptide SC3B] | ineffective | – | – | – | – | – | –
2 | {FITC-Ahx}-ESSLPLNAIEPS-NH2 [Peptide 1] | – | suitable to dissociate said two proteins | induce a significant apoptotic response | significantly higher in comparison to the control Scramble peptide | able to preserve the binding of p53 to MDM4 | – | –
3 | FITC-Ahx-KEIQLVIKVFIA-CONH2 (HELM PEPTIDE1{[O=C1OC2(c3ccc(O)cc3Oc3cc(O)ccc32)c2ccc(NC(=S)[*:2])cc21].[O=C(CCCCCN[*:1])[*:2]].K.E.I.Q.L.V.I.K.V.F.I.A.[am]}$$$$V2.0; SMILES CC[C@H](C)[C@H](NC(=O)[C@H](Cc1ccccc1)NC(=O)[C@@H](NC(=O)[C@H](CCCCN)NC(=O)[C@@H](NC(=O)[C@@H](NC(=O)[C@H](CC(C)C)NC(=O)[C@H](CCC(N)=O)NC(=O)[C@@H](NC(=O)[C@H](CCC(=O)O)NC(=O)[C@H](CCCCN)NC(=O)CCCCCNC(=S)Nc1ccc2c(c1)C(=O)OC21c2ccc(O)cc2Oc2cc(O)ccc21)[C@@H](C)CC)C(C)C)[C@@H](C)CC)C(C)C)C(=O)N[C@@H](C)C(N)=O) [Peptide 3, FITC-Ahx tagged, C-terminal amide] | inhibit the ubiquitinatin activity of MDM2 towards p53 | highly effective in dissociating said two molecules | highly effective in inducing cellular apoptosis | – | does not dissociate p53 from MDM4 | induce apoptosis | meaningfully lower in p53 lacking than harboring cells
4 | VQEAFKLIKIVI (peptide composed with the same aminoacids of SEQ ID NO3 but arranged in different order) [Peptide SC3A] | ineffective | – | – | – | – | – | –
5 | KEIQLVIKVAEA (MDM4 sequence of the interaction domain between MDM4 and MDM2 from aa 479 to aa 490 of MDM4 in which FI in positions 10 and 11 of said sequence has been substituted with AE) [Peptide 3D, reference compound] | completely ineffective | – | – | – | – | completely ineffective | –

Source: patent publication US20130217634A1, “PEPTIDES ABLE TO INTERFERE WITH THE INHIBITING ACTIVITY OF MDM2/MDM4 HETERODIMER TOWARDS P53 AND USE THEREOF FOR CANCER TREATMENT” (UNIVERSITA' DEGLI STUDI DI PERUGIA, priority 2012, published 2013)
